This is an account of results in patent US6352958B1, “Cycloimido-substituted benzofused heterocyclic herbicides” (FMC Corporation, priority 1997, dated 2002).

Type in all cases: in vivo
Assay [1] concerns soybean (Glycine max var. Winchester). Nature of the assay: Preemergence herbicidal activity, soybean. The note with it: Rate of Application 0.3 Kg/Ha, examined after 12-17 days.
Assay [2] concerns wheat (Triticum aestivum var. Lew). Kind of assay: Preemergence herbicidal activity, wheat. The note with it: Rate of Application 0.3 Kg/Ha, examined after 12-17 days.
Assay [3] has as its system field corn (Zea mays var. Pioneer 3732). Nature of the assay: Preemergence herbicidal activity, corn. The note with it: Rate of Application 0.3 Kg/Ha, examined after 12-17 days.
Assay [4] concerns velvetleaf (Abutilon theophrasti). Kind of assay: Preemergence herbicidal activity, velvetleaf. The note with it: Rate of Application 0.3 Kg/Ha, examined after 12-17 days.
Assay [5] relates to morningglory (Ipomea lacunosa or Ipomea hederacea). Nature of the assay: Preemergence herbicidal activity, morningglory. As to conditions: Rate of Application 0.3 Kg/Ha, examined after 12-17 days.
Assay [6] relates to common chickweed (Stellaria media). Nature of the assay: Preemergence herbicidal activity, chickweed. The note with it: Rate of Application 0.3 Kg/Ha, examined after 12-17 days.
In assay [7] the test system is common cocklebur (Xanthium strumarium L.). Kind of assay: Preemergence herbicidal activity, cocklebur. The note with it: Rate of Application 0.3 Kg/Ha, examined after 12-17 days.
Assay [8] relates to blackgrass (Aloepecurus myosuroides). Nature of the assay: Preemergence herbicidal activity, blackgrass. As to conditions: Rate of Application 0.3 Kg/Ha, examined after 12-17 days.
The subject of assay [9] is green foxtail (Setaria viridis). Kind of assay: Preemergence herbicidal activity, green foxtail. The note with it: Rate of Application 0.3 Kg/Ha, examined after 12-17 days.
The subject of assay [10] is Johnsongrass (Sorghum halepense). Kind of assay: Preemergence herbicidal activity, johnsongrass. The note with it: Rate of Application 0.3 Kg/Ha, examined after 12-17 days.
Assay [11] concerns soybean (Glycine max var. Winchester). Kind of assay: Postemergence herbicidal activity, soybean. The note with it: rate of application 0.3 Kg/Ha, rated after 12-17 days.
The subject of assay [12] is wheat (Triticum aestivum var. Lew). Kind of assay: Postemergence herbicidal activity, wheat. The note with it: rate of application 0.3 Kg/Ha, rated after 12-17 days.
The subject of assay [13] is field corn (Zea mays var. Pioneer 3732). Kind of assay: Postemergence herbicidal activity, corn. As to conditions: rate of application 0.3 Kg/Ha, rated after 12-17 days.
Assay [14] deals with velvetleaf (Abutilon theophrasti). Nature of the assay: Postemergence herbicidal activity, velvetleaf. As to conditions: rate of application 0.3 Kg/Ha, rated after 12-17 days.
For assay [15], the system named is morningglory (Ipomea lacunosa or Ipomea hederacea). Nature of the assay: Postemergence herbicidal activity, morningglory. The note with it: rate of application 0.3 Kg/Ha, rated after 12-17 days.
Assay [16] deals with common chickweed (Stellaria media). Nature of the assay: Postemergence herbicidal activity, chickweed. As to conditions: rate of application 0.3 Kg/Ha, rated after 12-17 days.
In assay [17] the test system is common cocklebur (Xanthium strumarium L.). Kind of assay: Postemergence herbicidal activity, cocklebur. The note with it: rate of application 0.3 Kg/Ha, rated after 12-17 days.
For assay [18], the system named is blackgrass (Aloepecurus myosuroides). Kind of assay: Postemergence herbicidal activity, blackgrass. The note with it: rate of application 0.3 Kg/Ha, rated after 12-17 days.
The subject of assay [19] is green foxtail (Setaria viridis). Kind of assay: Postemergence herbicidal activity, green foxtail. The note with it: rate of application 0.3 Kg/Ha, rated after 12-17 days.
The subject of assay [20] is Johnsongrass (Sorghum halepense). Kind of assay: Postemergence herbicidal activity, johnsongrass. As to conditions: rate of application 0.3 Kg/Ha, rated after 12-17 days.

For `Cn1c(C(F)(F)F)cc(=O)n(-c2c(F)cc(Cl)c3nc(-c4ccccc4)[nH]c23)c1=O` [Compound 375], in assay [1], the “PREEMERGENCE HERBICIDAL ACTIVITY (% CONTROL) SOY” value amounted to 80%. Further, the “PREEMERGENCE HERBICIDAL ACTIVITY (% CONTROL) WHT” value in assay [2] is given as 30%. Besides, in assay [3], the “PREEMERGENCE HERBICIDAL ACTIVITY (% CONTROL) CRN” value is 90%. For the same molecule, the “PREEMERGENCE HERBICIDAL ACTIVITY (% CONTROL) ABUTH” value in assay [4] worked out at 100%. Moreover, in assay [5], the “PREEMERGENCE HERBICIDAL ACTIVITY (% CONTROL) IPOSS” value is listed as 80%. In addition, the “PREEMERGENCE HERBICIDAL ACTIVITY (% CONTROL) STEME” value in assay [6] worked out at 95%. Besides, the “PREEMERGENCE HERBICIDAL ACTIVITY (% CONTROL) XANPE” value in [7] amounted to 80%. Also, in assay [8], the “PREEMERGENCE HERBICIDAL ACTIVITY (% CONTROL) ALOMY” value is 80%. In addition, the “PREEMERGENCE HERBICIDAL ACTIVITY (% CONTROL) SETVI” value in assay [9] was 100%. In assay [10], the “PREEMERGENCE HERBICIDAL ACTIVITY (% CONTROL) SORHA” value was determined as 95%. Besides, the “Postemergence herbicidal activity (% control) SOY” value in [11] is reported as 95%. The “Postemergence herbicidal activity (% control) WHT” value in [12] is 40%. For the same molecule, the “Postemergence herbicidal activity (% control) CRN” value in [13] turned out to be 90%. The “Postemergence herbicidal activity (% control) ABUTH” value in assay [14] stood at 100%. Besides, the “Postemergence herbicidal activity (% control) IPOSS” value in assay [15] amounted to 95%. Also, the “Postemergence herbicidal activity (% control) STEME” value in assay [16] is on record as 100%. Besides, the “Postemergence herbicidal activity (% control) XANPE” value in [17] is 100%. Further, in assay [18], the “Postemergence herbicidal activity (% control) ALOMY” value was 90%. The “Postemergence herbicidal activity (% control) SETVI” value in assay [19] worked out at 80%. Moreover, the “Postemergence herbicidal activity (% control) SORHA” value in assay [20] worked out at 100%.

Regarding `Cn1c(C(F)(F)F)cc(=O)n(-c2c(F)cc(Cl)c3c2nc(C(F)(F)F)n3C)c1=O` [Compound 399], the “PREEMERGENCE HERBICIDAL ACTIVITY (% CONTROL) SOY” value in assay [1] stood at 95%. The “PREEMERGENCE HERBICIDAL ACTIVITY (% CONTROL) WHT” value in assay [2] was 80%. Moreover, the “PREEMERGENCE HERBICIDAL ACTIVITY (% CONTROL) CRN” value in [3] worked out at 95%. Further, the “PREEMERGENCE HERBICIDAL ACTIVITY (% CONTROL) ABUTH” value in [4] is recorded as 100%. Further, the “PREEMERGENCE HERBICIDAL ACTIVITY (% CONTROL) IPOSS” value in assay [5] came out at 95%. For the same molecule, the “PREEMERGENCE HERBICIDAL ACTIVITY (% CONTROL) STEME” value in assay [6] was found to be 100%. Moreover, the “PREEMERGENCE HERBICIDAL ACTIVITY (% CONTROL) XANPE” value in [7] is recorded as 70%. Also, in [8], the “PREEMERGENCE HERBICIDAL ACTIVITY (% CONTROL) ALOMY” value is recorded as 60%. In addition, the “PREEMERGENCE HERBICIDAL ACTIVITY (% CONTROL) SETVI” value in assay [9] stood at 100%. The “PREEMERGENCE HERBICIDAL ACTIVITY (% CONTROL) SORHA” value in assay [10] amounted to 0%. The “Postemergence herbicidal activity (% control) SOY” value in assay [11] was 95%. For the same molecule, the “Postemergence herbicidal activity (% control) WHT” value in [12] was determined as 30%. For the same molecule, the “Postemergence herbicidal activity (% control) CRN” value in assay [13] came to 70%. Further, the “Postemergence herbicidal activity (% control) ABUTH” value in assay [14] came out at 100%. Also, in assay [15], the “Postemergence herbicidal activity (% control) IPOSS” value was found to be 100%. The “Postemergence herbicidal activity (% control) STEME” value in assay [16] stood at 100%. For the same molecule, the “Postemergence herbicidal activity (% control) XANPE” value in [17] amounted to 100%. The “Postemergence herbicidal activity (% control) ALOMY” value in assay [18] worked out at 50%. Besides, in assay [19], the “Postemergence herbicidal activity (% control) SETVI” value came to 70%. For the same molecule, the “Postemergence herbicidal activity (% control) SORHA” value in [20] stood at 60%.

For `CCOC(=O)c1cc2c(-n3c(=O)cc(C(F)(F)F)n(C)c3=O)c(F)cc(Cl)c2[nH]1` [Compound 493], the “PREEMERGENCE HERBICIDAL ACTIVITY (% CONTROL) SOY” value in assay [1] came to 80%. In assay [2], the “PREEMERGENCE HERBICIDAL ACTIVITY (% CONTROL) WHT” value was 70%. In addition, in assay [3], the “PREEMERGENCE HERBICIDAL ACTIVITY (% CONTROL) CRN” value amounted to 90%. Also, the “PREEMERGENCE HERBICIDAL ACTIVITY (% CONTROL) ABUTH” value in assay [4] is given as 100%. For the same molecule, the “PREEMERGENCE HERBICIDAL ACTIVITY (% CONTROL) IPOSS” value in assay [5] was determined as 100%. Besides, the “PREEMERGENCE HERBICIDAL ACTIVITY (% CONTROL) STEME” value in [6] was 100%. The “PREEMERGENCE HERBICIDAL ACTIVITY (% CONTROL) XANPE” value in [7] amounted to 70%. Also, the “PREEMERGENCE HERBICIDAL ACTIVITY (% CONTROL) ALOMY” value in [8] amounted to 75%. In addition, in assay [9], the “PREEMERGENCE HERBICIDAL ACTIVITY (% CONTROL) SETVI” value stood at 100%. In assay [10], the “PREEMERGENCE HERBICIDAL ACTIVITY (% CONTROL) SORHA” value is on record as 100%. In addition, in [11], the “Postemergence herbicidal activity (% control) SOY” value amounted to 95%. Also, the “Postemergence herbicidal activity (% control) WHT” value in [12] worked out at 60%. The “Postemergence herbicidal activity (% control) CRN” value in assay [13] came out at 90%. For the same molecule, in assay [14], the “Postemergence herbicidal activity (% control) ABUTH” value is listed as 100%. Also, in assay [15], the “Postemergence herbicidal activity (% control) IPOSS” value came to 100%. The “Postemergence herbicidal activity (% control) STEME” value in [16] turned out to be 80%. Moreover, the “Postemergence herbicidal activity (% control) XANPE” value in [17] stood at 100%. For the same molecule, the “Postemergence herbicidal activity (% control) ALOMY” value in assay [18] is recorded as 65%. In addition, in assay [19], the “Postemergence herbicidal activity (% control) SETVI” value is 100%. In assay [20], the “Postemergence herbicidal activity (% control) SORHA” value was determined as 100%.
